Test results published in US5883240A, “Genetic sequences encoding glucocorticoid dehydrogenases and uses therefor” (Baker Medical Research Institute, priority 1995, dated 1999).

Assays:
11 βHSD2 [1] = target: T1, 11 βHSD2 (Homo sapiens, UniProt P80365); test: Directionality and end-product inhibition in intact pHSD2 transfected CHOP cells; format: cell-based; details: monolayer cultures, 1.5 hours at 37° C., labelled substrate, TLC of culture medium
T1 sequence (P80365 1-405 V148L): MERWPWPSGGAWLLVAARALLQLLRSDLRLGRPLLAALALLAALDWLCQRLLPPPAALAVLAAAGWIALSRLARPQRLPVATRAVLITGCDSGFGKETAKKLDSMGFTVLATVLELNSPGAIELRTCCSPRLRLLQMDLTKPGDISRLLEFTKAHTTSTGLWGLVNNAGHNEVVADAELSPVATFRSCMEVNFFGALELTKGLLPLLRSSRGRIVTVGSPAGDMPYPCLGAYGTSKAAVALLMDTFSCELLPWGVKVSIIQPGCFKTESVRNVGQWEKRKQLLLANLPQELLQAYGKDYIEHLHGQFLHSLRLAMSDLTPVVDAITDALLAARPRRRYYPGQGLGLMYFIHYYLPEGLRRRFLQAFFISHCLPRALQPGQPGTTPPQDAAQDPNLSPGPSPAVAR
Protocol: To determine directionality and extent of end production inhibition of the enzyme encoded by pHSD2, monolayer cultures of transfected CHOP cells were incubated for 1.5 hours at 37° C. with 1-2 nM labelled substrates plus 10 nM corresponding unlabelled 11-dehydro metabolite (FIG. 2b). The culture medium was then removed, extracted and assayed by TLC for the presence of the 11-dehydro metabolite.

11 βHSD2 [2] = target: T1, 11 βHSD2; test: Cofactor specificity of glucocorticoid metabolism in homogenates of pHSD2 transfected CHOP cells; format: biochemical; details: 1 mM NAD+ or 1 mM NADP+, 1-2 nM tritiated plus 10 nM unlabelled substrate, 37° C., 40 minutes, TLC
Protocol: CHOP cells were transfected with plasmid pHSD2, which contains an insert encoding 11 βHSD2. After 60 hours incubation in 85 mm plates, cellular homogenates were prepared and assayed for their ability to metabolise glucocorticoid substrates in the presence of 1 mM NAD+, or 1 mM NADP+. Confluent cells were homogenised in 1 ml of homogenisation buffer (0.25M sucrose, 10 MM phosphate, pH 7). Reaction mixtures (500 μl) contained either 40 μl of homogenate plus [^3 H]corticosterone, or 80 μl of homogenate plus [^3 H]cortisol, or 120 μl of homogenate plus [^3 H]dexamethasone, in homogenisation buffer. All reactions contained 1-2 nM tritiated glucocorticoid substrate plus 10 nM unlabelled glucocorticoid substrate. Reaction mixtures were incubated at 37° C. for 40 minutes and steroid metabolites were assayed by thin layer chromatography.

11 βHSD2 [3] = target: T1, 11 βHSD2; format: biochemical; details: substrate Km, double reciprocal plot, homogenates of pHSD2 transfected CHOP cells, 37° C., mean±SD, n=3
Source text: The efficiency of the dehydrogenase may be further increased by mechanisms such as intracellular compartmentalisation of the enzyme.

| SMILES | metabolite formation by intact transfected CHOP cells (11 βHSD2 [1]) | glucocorticoid metabolism to 11-dehydro metabolite, cofactor dependence (11 βHSD2 [2]) | Km (11 βHSD2 [3]) [µM] |
| --- | --- | --- | --- |
| C[C@]12CC(=O)[C@H]3[C@@H](CCC4=CC(=O)CC[C@@]43C)[C@@H]1CC[C@@H]2C(=O)CO [11-dehydro corticosterone] | no metabolite formed |  |  |
| C[C@]12C[C@H](O)[C@H]3[C@@H](CCC4=CC(=O)CC[C@@]43C)[C@@H]1CC[C@@H]2C(=O)CO [corticosterone] | converted | only showed significant glucocorticoid metabolism when NAD+, but not NADP+, was included as a cofactor | 0.0044 ± 0.0012 |
| C[C@]12CCC(=O)C=C1CC[C@@H]1[C@@H]2[C@@H](O)C[C@@]2(C)[C@H]1CC[C@]2(O)C(=O)CO [cortisol] | converted | only showed significant glucocorticoid metabolism when NAD+, but not NADP+, was included as a cofactor | 0.047 ± 0.0018 |
| C[C@]12CCC(=O)C=C1CC[C@@H]1[C@@H]2C(=O)C[C@@]2(C)[C@H]1CC[C@]2(O)C(=O)CO [cortisone] | no metabolite formed |  |  |
| C[C@@H]1C[C@H]2[C@@H]3CCC4=CC(=O)C=C[C@]4(C)[C@@]3(F)[C@@H](O)C[C@]2(C)[C@@]1(O)C(=O)CO [dexamethasone] |  | only showed significant glucocorticoid metabolism when NAD+, but not NADP+, was included as a cofactor |  |
